The text below walks through data of publication PMC9476706, “Integrating pharmacokinetics and network analysis to investigate the mechanism of Moutan Cortex in blood-heat and blood stasis syndrome” (Chinese Medicine, 2022).

The subject of one series is F2. The series can be described thus: F2 expression in TNF-α induced HUVECs (ELISA, RT-qPCR). The format is cell-based, Human. Particulars: HUVECs + 25 ng/mL TNF-α, 8 h, versus model group; for F2 protein expression: paeonol 50, paeoniflorin 500, quercetin 1, oxypaeoniflorin 500 μg/mL. As for the experimental part:
(§1) After three or four passages, the HUVECs were digested with 0.25% trypsin and seeded in a 6-well plate with a density of 1 × 10^5 cells/mL for ELISA analysis and RT-qPCR. […] Afterwards, take the supernatant and measure according to the ELISA kit, and detect the OD value at the wavelength of 450. […] ChamQTMUniversalSYBR qPCR Master Mix (Vazyme Biotech Co., Ltd, Q711-02) was performed on a Real-time PCR System.

The test system of another series is F7. The series can be described thus: F7 expression in TNF-α induced HUVECs (ELISA, RT-qPCR). Format: cell-based, Human. Particulars: HUVECs + 25 ng/mL TNF-α, 8 h, versus model group; for F7 protein expression: paeonol 50, paeoniflorin 500, quercetin 1, oxypaeoniflorin 500 μg/mL. The protocol: as §1
The next series has as its system F10. The series can be described thus: F10 expression in TNF-α induced HUVECs (ELISA, RT-qPCR). Format: cell-based, Human. Particulars: HUVECs + 25 ng/mL TNF-α, 8 h; paeonol 50, paeoniflorin 500, quercetin 1, oxypaeoniflorin 500 μg/mL; versus model group. As for the experimental part:
as §1

Another series concerns MAPK10. The experiment in a line: MAPK10 mRNA expression in TNF-α induced HUVECs (RT-qPCR). Format: cell-based, Human. Particulars: HUVECs + 25 ng/mL TNF-α, 8 h, paeonol 50, paeoniflorin 500, quercetin 1, oxypaeoniflorin 500 μg/mL, versus model group. The protocol:
as §1

For another series, the system named is APTT, PT and TT. The experiment in a line: Coagulation test (APTT, PT, TT) in rabbit plasma. Particulars: for APTT: 10 μL solution, paeoniflorin 250, oxypaeoniflorin 500, quercetin 1, paeonol 50 μg/mL, blank 13.63 ± 0.49, n = 3; for effect on PT compared with blank / effect on TT compared with blank / effect on prolonging APTT compared with blank: in words.
The nature of series [1]: Pharmacokinetic study of nine absorbed components in rat serum after oral RMC extract (UHPLC-DAD).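 For all read-outs here: BHS model made by subcutaneous yeast suspension then two adrenaline injections with ice-water immersion, normal rats given saline instead, serum analytes quantified by UHPLC-DAD at 254 nm.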 Particulars: for AUC / Cmax / MRT / half-life / Tmax: male, Sprague-Dawley, rat, serum, po, 10 mL/kg, oral RMC extract 10 mL/kg (equal to 6 g/mL of RMC) once a day for 7 days, n = 6; for time after which the compound was not detected: BHS-RMC rats.
Procedure: Twenty-four male Sprague–Dawley rats (weighing 300 ± 20 g) were purchased from Animal Experiment Center, Guangdong Academy of Medical Sciences (Certificate no. SCXK2013-0002). The rats were kept in an environmentally controlled breeding room at a temperature of 22 ± 2 °C and a relative humidity of 55 ± 10% for 1 week before starting the experiments. They were fed with standard laboratory food and water. Both the animal’s care and the study protocol were conducted according to the National Institutes of Health Guide for the Care and Use of Laboratory Animals, and followed the guidelines of the Ethics Committee of Guangdong Pharmaceutical University.
The rats were randomly divided into following four groups: normal groups (Normal groups), BHS model groups (BHS groups), normal group administrated with RMC extraction (N-RMC group), BHS group administrated with RMC extraction (BHS-RMC group), respectively. N-RMC group and BHS-RMC group rats were respectively orally administrated with RMC extraction (equal to 6 g/mL of RMC) for continuous 7 days at a dose of 10 mL/kg, once a day, 1 hour after the sixth day of administration. The rats in BHS groups and BHS-RMC group were subcutaneously injected with 10% aqueous suspension of yeast (10 mL/kg) and then subcutaneously injected with 0.1 mg/mL adrenaline hydrochloride solution twice (at a dose of 0.8 mL/kg, 4 h apart) while body temperature remained relatively steady high. Those rats were soaked in ice-water for 5 min keeping their heads outside surface between two subcutaneous injections of adrenaline hydrochloride solution [39, 40]. At the same time, the normal groups and N-RMC group rats were injected with the same dose of saline (10 mL/kg) subcutaneously. All rats were fasted for 12 h but free for water before taking the blood. On the seventh day, 0.3 mL blood samples were collected from fossa orbitalis vein at the time point of 0.083, 0.25, 0.5, 0.75, 1, 2, 3, 4, 6, 8, 10, 12 and 24 h after oral administration. All blood samples were immediately centrifuged at 13,680 (× g) for 10 min at 4 °C and the serum samples were obtained and stored at −80 °C until analysis.
Firstly, 100 μL serum was spiked with 10 μL IS working solution to mix evenly, then 1 mL methanol was added to protein precipitation, and centrifuged at 1520 (× g) for 10 min at 4 °C. Secondly, the supernatant was collected with a clean tube carefully and filtered through 0.22 μm microporous filter head. Thirdly, the filtrate was evaporated to dryness under a stream of nitrogen at 40 °C. Finally, the residue was dissolved in 100 μL methanol and 10 μL of aliquot was injected into UHPLC-DAD system for analysis.
The chromatography experiment was carried out using UPLC system (Thermo Fisher Scientific, USA). Chromatographic conditions were according to the paper published by our research group [37]. Column: Acquity UPLC® BEH Shield RP18 Column (2.1 mm × 100 mm, 1.7 μm, Waters, USA). The column temperature was maintained at 30 °C. Mobile phase: Acetonitrile (A) and 0.1% (v/v) formic acid in water (B). The gradient conditions: 0–10 min, 5–15% A; 10–20 min, 15–35% A; 20–30 min, 35–95% A; 30–32 min, 95% A. The samples were kept at 4 °C in the auto-sampler. Flow rate and sample size, 0.2 mL/min and 2 μL; column temperature and detection wavelength, 30 °C and 254 nm.
The concentrations of nine components of all samples were processed by PKSolver pharmacokinetics software. Statistical comparisons among groups were performed with GraphPad Prism 8 using a One-Way ANOVA analysis. Data expressed as mean ± SD and a p value ≤ 0.05 was considered to be statistically significant.
The test system of another series is APTT. More on the design: method as in doi:10.5246/jcps.2018.09.062. Particulars: cited from earlier work.
A further series concerns AKT. The experiment in a line: AKT expression in TNF-α induced HUVECs (RT-qPCR). Particulars: HUVECs + 25 ng/mL TNF-α, 8 h, oxypaeoniflorin 500 μg/mL, versus model group. The format is cell-based, Human. The protocol:
as §1

Where [2] appears, read: BHS-RMC versus N-RMC rats, oral RMC extract.
Setting [3] is: T1/2, BHS-RMC group (BHS model rats).
Setting [4] is: T1/2, N-RMC group (normal rats).

Procedure for APTT, PT and TT: New Zealand white rabbits, after being fasted but with free access to water for 8 h, were anesthetized by intraperitoneal injection of 10.0% chloral hydrate at 0.3 mL/100 g. The blood collected from the carotid artery was anticoagulated with 3.8% sodium citrate (blood and dosage volume ratio of 9:1), and transferred to a vacuum blood-collection tube, which was then slowly inverted and mixed for 3 to 4 times, and centrifuged at 860 (× g) for 10 min to obtain the supernatant. […] Whereafter, 10 μL of monomer solution was added under the kit instructions to determine APTT, PT and TT using coagulation method.

In the case of `O=c1c(O)c(-c2ccc(O)c(O)c2)oc2cc(O)cc(O)c12` [Quercetin, quercetin], the F2 protein expression result with F2 was “significantly declined”. Moreover, in the series with F7, the F7 protein expression entry is on record as “significantly declined”. Further, the F10 protein expression result in the series with F10 is listed as “significantly declined”. Moreover, the “MAPK10 mRNA expression” value in the series with MAPK10 is “significant decrease”. Further, in the series with APTT, PT and TT, the APTT amounted to 15.2 ± 0.387 s, the “effect on PT compared with blank” value was “no significant difference”, the “effect on TT compared with blank” value was “tendency of prolonging” and the “effect on prolonging APTT compared with blank” value is listed as “significant effect”. The “Cmax increase in BHS-RMC over N-RMC” value in series [1] (setting [2]) amounted to 15%. Also, in series [1] (BHS-RMC group (BHS model rats)), the AUC is 10000 µg·h/mL, the Cmax was 739.9 ± 4.17 µg/mL, the MRT came out at 20.4 ± 0.66 h and the time to peak (Tmax) is 4 h. In addition, in series [1] (N-RMC group (normal rats)), the exposure (AUC) was 7340 ± 166 µg·h/mL, the Cmax is 643 ± 19.8 µg/mL, the MRT stood at 16.6 ± 0.56 h and the Tmax is 4 h. Further, the half-life in series [1] (setting [3]) is 15.5 ± 0.54 h. This compound gave a half-life in series [1] (setting [4]) of 9.97 ± 0.35 h.

As to `Cc1oc2c(O)cccc2c(=O)c1O` [3,8-Dihydroxy-2-methylchromone, 3,8-dihydroxy-2-methylchromone], in the series on APTT, the “effect on APTT” value is listed as “significantly extend”. In series [1] (setting [2]), the “Cmax increase in BHS-RMC over N-RMC” value is listed as 16%. Also, in series [1] (BHS-RMC group (BHS model rats)), the AUC amounted to 757 ± 8.72 µg·h/mL, the Cmax was 134 ± 3.26 µg/mL, the MRT amounted to 14.1 ± 1.07 h and the Tmax is 0.75 h. In addition, in series [1] (N-RMC group (normal rats)), the AUC was 660 ± 29.9 µg·h/mL, the peak level (Cmax) was 116 ± 2.12 µg/mL, the mean residence time MRT turned out to be 6.9 ± 0.68 h and the Tmax was 0.75 h. Also, the half-life in series [1] (setting [3]) was 19 ± 1.78 h. In addition, the half-life in series [1] (setting [4]) was 4.73 ± 0.29 h.

For the compound oxypaeoniflorin, the F7 protein expression entry with F7 is “significantly declined”. Moreover, in the series with F10, the F10 protein expression entry is “significantly declined”. In addition, in the series with MAPK10, the “MAPK10 mRNA expression” value is on record as “significant decrease”. Besides, the “expression of AKT” value with AKT is “could decrease”. Moreover, in the series with APTT, PT and TT, the APTT stood at 15.63 ± 0.45 s, the “effect on PT compared with blank” value was “no significant difference”, the “effect on TT compared with blank” value is on record as “tendency of prolonging” and the “effect on prolonging APTT compared with blank” value is listed as “significant effect”.

Consider `O=C(O)c1cc(O)c(O)c(O)c1` [Gallic acid, gallic acid], for which, in series [1] (setting [2]), the “AUC increase in BHS-RMC over N-RMC” value was 5% and the “Cmax increase in BHS-RMC over N-RMC” value worked out at 42%. Also, in series [1] (BHS-RMC group (BHS model rats)), the exposure (AUC) worked out at 1070 ± 72.9 µg·h/mL, the Cmax worked out at 180 ± 11.1 µg/mL, the MRT was found to be 10 ± 0.96 h and the Tmax was determined as 1 h. In series [1] (N-RMC group (normal rats)), this compound yielded an AUC of 1020 ± 26.6 µg·h/mL, a Cmax of 127 ± 2.9 µg/mL and a mean residence time MRT of 17.3 ± 0.8 h. Besides, the half-life in series [1] (setting [3]) is 6.33 ± 0.45 h. Also, in series [1] (setting [4]), the half-life is 10.8 ± 0.87 h.

As for `C[C@@]12C[C@@]3(O)O[C@@H](O1)[C@]1(COC(=O)c4ccccc4)[C@H]3C[C@@]12O[C@@H]1O[C@H](CO)[C@@H](O)[C@H](O)[C@H]1O` [Paeoniflorin, paeoniflorin], the F2 protein expression result with F2 was “significantly declined”. Further, the F7 protein expression entry in the series on F7 is given as “significantly declined”. Moreover, the F10 protein expression entry with F10 was “significantly declined”. Further, the “MAPK10 mRNA expression” value in the series on MAPK10 is “significant decrease”. In addition, in the series with APTT, PT and TT, the APTT is 15.07 ± 0.06 s, the “effect on PT compared with blank” value was “no significant difference”, the “effect on TT compared with blank” value is “tendency of prolonging” and the “effect on prolonging APTT compared with blank” value is on record as “significant effect”. Moreover, in series [1] (oral RMC extract), the “time after which the compound was not detected” value is 12 h. In series [1] (BHS-RMC group (BHS model rats)), the AUC was found to be 298 ± 7.6 µg·h/mL, the peak level (Cmax) was 84.2 ± 1.99 µg/mL, the mean residence time MRT came out at 5.06 ± 0.22 h and the Tmax was 0.75 h. In series [1] (N-RMC group (normal rats)), this compound came in with an AUC of 1450 ± 62.3 µg·h/mL, a Cmax of 201.6 ± 1.86 µg/mL and an MRT of 15.5 ± 0.94 h. For the same compound, the half-life in series [1] (setting [3]) was 3.6 ± 0.31 h. In series [1] (setting [4]), the half-life was 9.75 ± 0.47 h.

As to `O=C(O)c1ccccc1` [Benzoic acid, benzoic acid], the “Cmax increase in BHS-RMC over N-RMC” value in series [1] (setting [2]) was determined as 49%. For the same compound, in series [1] (BHS-RMC group (BHS model rats)), the AUC worked out at 2320 ± 71.3 µg·h/mL, the Cmax stood at 213 ± 5.26 µg/mL, the MRT turned out to be 13.3 ± 0.79 h and the Tmax turned out to be 3 h. For the same compound, in series [1] (N-RMC group (normal rats)), the AUC is 1880 ± 217 µg·h/mL, the highest level (Cmax) was 144 ± 4.48 µg/mL, the MRT came out at 17 ± 2.76 h and the Tmax was 4 h.

As for `COc1ccc(C(C)=O)c(O)c1` [Paeonol, paeonol], the “F2 mRNA expression” value with F2 (paeonol 50 μg/mL, RT-qPCR) is recorded as “no effects”. Besides, the F2 protein expression result in the series with F2 was “significantly declined”. Moreover, in the series with F7 (paeonol 50 μg/mL, RT-qPCR), the “F7 mRNA expression” value is reported as “no effects”. Besides, the F7 protein expression result with F7 was “significantly declined”. For the same compound, the F10 protein expression entry with F10 is reported as “significantly declined”. Moreover, the “MAPK10 mRNA expression” value in the series with MAPK10 is on record as “significant decrease”. Further, in the series with APTT, PT and TT, the APTT came to 17.23 ± 0.35 s, the “effect on PT compared with blank” value is “no significant difference”, the “effect on TT compared with blank” value is on record as “tendency of prolonging” and the “effect on prolonging APTT compared with blank” value is recorded as “significant effect”. In addition, in series [1] (oral RMC extract), the “time after which the compound was not detected” value was found to be 8 h. Moreover, in series [1] (BHS-RMC group (BHS model rats)), the AUC amounted to 45.5 ± 0.83 µg·h/mL, the Cmax was found to be 10.4 ± 0.23 µg/mL, the MRT is 4.63 ± 0.12 h and the Tmax stood at 0.75 h. In addition, in series [1] (N-RMC group (normal rats)), the AUC was 107 ± 1.23 µg·h/mL, the Cmax turned out to be 11.8 ± 0.13 µg/mL, the MRT is 12.1 ± 0.17 h and the Tmax was 0.75 h. Further, the half-life in series [1] (setting [3]) is 4.37 ± 0.15 h. The same compound gave a half-life in series [1] (setting [4]) of 7.84 ± 0.08 h. The “shape of plasma concentration-time profile” value in series [1] (oral RMC extract, both normal and model rats) is recorded as “bimodal (double peak) phenomenon”.

For `COC(=O)c1ccc(O)cc1` [Methylparaben, methyl paraben], in series [1] (BHS-RMC group (BHS model rats)), the AUC came to 39.9 ± 1.34 µg·h/mL, the Cmax stood at 2.16 ± 0.11 µg/mL, the MRT came to 27.1 ± 1.16 h and the time to peak (Tmax) was 1 h. Also, in series [1] (N-RMC group (normal rats)), the AUC came out at 22.8 ± 1.34 µg·h/mL, the Cmax was 6.35 ± 0.53 µg/mL, the MRT is 7.91 ± 0.56 h and the Tmax came to 0.75 h. In addition, the half-life in series [1] (setting [3]) was 17.9 ± 0.84 h. The compound also showed a half-life in series [1] (setting [4]) of 4.93 ± 0.23 h.

Regarding `O=Cc1ccc(CO)o1` [5-HMF, 5-hydroxymethylfurfural], in series [1] (BHS-RMC group (BHS model rats)), the AUC is 741 ± 20.3 µg·h/mL, the Cmax was found to be 111 ± 7.25 µg/mL, the MRT came out at 7.47 ± 0.48 h and the Tmax turned out to be 0.75 h. In series [1] (N-RMC group (normal rats)), the AUC is 1564 ± 4.63 µg·h/mL, the Cmax worked out at 413.2 ± 2.01 µg/mL, the MRT turned out to be 4.55 ± 0.03 h and the Tmax turned out to be 3 h. In series [1] (setting [3]), this compound had a half-life of 7.33 ± 2.1 h. The same compound had a half-life in series [1] (setting [4]) of 3.2 ± 0.03 h.
